Among the data in patent US20240124412A1, “IKAROS ZINC FINGER FAMILY DEGRADERS AND USES THEREOF” (Gilead Sciences, Inc., priority 2021, published 2024) are Dmax and DC50 values, retold here.

One assay has as its target T1, IKZF1 (Homo sapiens, UniProt Q13422+Q96SW2).
T1 construct: expressed in transfected cells
The assay can be described thus: HiBiT protein tagging assay, in vitro IKZF1 degradation (HEK293). The assay is classed as cell-based. Conditions: HEK293, 18-24 hr incubation, normalized to DMSO control. A digest of the protocol:
(§1)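 Flp-In T-REx HEK293 pools stably expressing C-terminal HiBiT-tagged IKZF1 or IKZF2 were induced overnight with 1 μg/ml doxycycline. Cells were then treated with serially diluted compound for 18-24 hr at 37 °C and read by Nano-Glo lytic luminescence. Data were normalized to 0.5% DMSO as POC; EC50 and Dmax (maximum degradation at highest concentration tested) reported.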
(In general: With HiBiT, luminescence reflects the tagged protein that the partner subunit can reach.)

The next assay has as its target T2, IKZF2 (Homo sapiens, UniProt Q96SW2+Q9UKS7).
T2 construct: expressed in transfected cells
The assay can be described thus: HiBiT protein tagging assay, in vitro IKZF2 degradation (HEK293). The assay is classed as cell-based. Conditions: HEK293, 18-24 hr incubation, normalized to DMSO control. The method in brief: as §1

T2 sequence (Q9UKS7 1-500 isoform Q9UKS7-2): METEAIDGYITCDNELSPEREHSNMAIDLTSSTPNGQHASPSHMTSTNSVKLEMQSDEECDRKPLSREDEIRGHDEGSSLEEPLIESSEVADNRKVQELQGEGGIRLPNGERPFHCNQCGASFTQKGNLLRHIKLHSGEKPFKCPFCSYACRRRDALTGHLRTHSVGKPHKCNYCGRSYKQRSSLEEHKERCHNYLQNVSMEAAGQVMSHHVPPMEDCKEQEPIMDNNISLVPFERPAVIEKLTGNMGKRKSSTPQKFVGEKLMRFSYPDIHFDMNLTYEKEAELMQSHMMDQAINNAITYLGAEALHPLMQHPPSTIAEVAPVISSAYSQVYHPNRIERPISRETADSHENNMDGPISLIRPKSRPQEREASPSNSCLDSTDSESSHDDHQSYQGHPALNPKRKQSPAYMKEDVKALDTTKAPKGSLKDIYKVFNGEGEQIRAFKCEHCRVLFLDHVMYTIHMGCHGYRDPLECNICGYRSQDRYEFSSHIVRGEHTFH
T2 sequence (Q96SW2 whole entry): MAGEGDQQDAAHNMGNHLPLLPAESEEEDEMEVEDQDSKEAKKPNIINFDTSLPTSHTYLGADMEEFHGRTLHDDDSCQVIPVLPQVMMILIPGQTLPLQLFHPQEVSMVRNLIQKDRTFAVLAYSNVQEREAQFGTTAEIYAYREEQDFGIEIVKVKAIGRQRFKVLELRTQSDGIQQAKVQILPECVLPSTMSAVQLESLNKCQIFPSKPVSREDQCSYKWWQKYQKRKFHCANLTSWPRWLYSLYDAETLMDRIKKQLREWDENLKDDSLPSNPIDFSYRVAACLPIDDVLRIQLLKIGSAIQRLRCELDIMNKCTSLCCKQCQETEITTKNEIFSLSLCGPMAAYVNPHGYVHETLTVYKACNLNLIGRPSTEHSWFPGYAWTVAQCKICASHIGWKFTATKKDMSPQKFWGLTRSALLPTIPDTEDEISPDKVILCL
T2 sequence (Q16531 whole entry partner): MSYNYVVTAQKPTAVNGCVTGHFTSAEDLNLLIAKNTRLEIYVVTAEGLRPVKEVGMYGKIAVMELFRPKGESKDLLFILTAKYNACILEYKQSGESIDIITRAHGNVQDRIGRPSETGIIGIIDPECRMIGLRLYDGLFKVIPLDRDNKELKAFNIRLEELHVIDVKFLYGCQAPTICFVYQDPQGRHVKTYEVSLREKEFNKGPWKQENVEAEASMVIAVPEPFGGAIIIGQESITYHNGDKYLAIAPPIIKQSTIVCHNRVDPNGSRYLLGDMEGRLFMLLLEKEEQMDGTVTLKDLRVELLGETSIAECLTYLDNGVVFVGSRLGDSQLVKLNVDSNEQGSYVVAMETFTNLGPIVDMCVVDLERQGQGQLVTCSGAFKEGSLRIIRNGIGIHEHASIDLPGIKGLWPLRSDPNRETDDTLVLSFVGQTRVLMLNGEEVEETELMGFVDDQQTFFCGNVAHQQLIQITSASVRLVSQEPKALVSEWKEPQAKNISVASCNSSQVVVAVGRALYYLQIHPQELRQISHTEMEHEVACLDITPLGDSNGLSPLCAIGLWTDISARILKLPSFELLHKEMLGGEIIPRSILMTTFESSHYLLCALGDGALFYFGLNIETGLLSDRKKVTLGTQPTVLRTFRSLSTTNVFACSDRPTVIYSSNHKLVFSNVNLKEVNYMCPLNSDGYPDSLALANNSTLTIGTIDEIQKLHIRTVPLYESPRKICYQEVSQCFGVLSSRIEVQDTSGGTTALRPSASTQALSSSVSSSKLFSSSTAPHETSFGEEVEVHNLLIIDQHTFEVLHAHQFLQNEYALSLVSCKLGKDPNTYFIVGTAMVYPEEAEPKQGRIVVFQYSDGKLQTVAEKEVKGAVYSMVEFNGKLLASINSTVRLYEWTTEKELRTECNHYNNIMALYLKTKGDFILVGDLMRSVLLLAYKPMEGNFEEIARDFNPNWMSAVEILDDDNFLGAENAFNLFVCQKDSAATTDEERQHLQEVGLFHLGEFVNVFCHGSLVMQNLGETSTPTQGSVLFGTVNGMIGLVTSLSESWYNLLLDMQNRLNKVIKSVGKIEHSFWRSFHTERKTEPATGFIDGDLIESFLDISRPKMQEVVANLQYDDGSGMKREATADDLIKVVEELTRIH
T1 sequence (Q13422 whole entry): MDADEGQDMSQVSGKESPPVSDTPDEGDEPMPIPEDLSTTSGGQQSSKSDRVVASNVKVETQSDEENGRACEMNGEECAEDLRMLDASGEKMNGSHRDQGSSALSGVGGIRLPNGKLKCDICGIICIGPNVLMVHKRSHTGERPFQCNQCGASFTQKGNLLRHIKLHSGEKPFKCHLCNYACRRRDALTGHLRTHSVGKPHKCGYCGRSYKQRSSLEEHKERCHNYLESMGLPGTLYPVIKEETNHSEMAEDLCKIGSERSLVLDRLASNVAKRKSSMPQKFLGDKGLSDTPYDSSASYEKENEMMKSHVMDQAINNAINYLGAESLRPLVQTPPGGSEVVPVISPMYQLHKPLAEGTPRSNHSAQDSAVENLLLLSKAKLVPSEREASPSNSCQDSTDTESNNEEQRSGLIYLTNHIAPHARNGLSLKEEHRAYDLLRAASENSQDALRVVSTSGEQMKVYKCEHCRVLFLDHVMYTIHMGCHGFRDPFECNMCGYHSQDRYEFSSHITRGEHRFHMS
T1 sequence (Q96SW2 whole entry): as the sequence (Q96SW2 whole entry) above
T1 sequence (Q16531 whole entry partner): as the sequence (Q16531 whole entry partner) above

In the case of `COC[C@@H]1CCCC[C@@H]1NCc1ccc2c(c1)CN(C1CCC(=O)NC1=O)C2=O` (stereo partly drawn) [Example 158, 3-(5-((((1S,2R)-2-(methoxymethyl)cyclohexyl)amino)methyl)-1-oxoisoindolin-2-yl)piperidine-2,6-dione], the Dmax on IKZF1 (read-out: IKZF1 Dmax (maximum degradation at the highest concentration tested)) amounted to 85%; at IKZF2 (HEK293, HiBiT assay, read-out: IKZF2 Dmax (maximum degradation at the highest concentration tested)) it was 93%. Further, the DC50 on IKZF1 (read-out: IKZF1 EC50) came to 90 nM; on IKZF2 (HiBiT assay, read-out: IKZF2 EC50), 46 nM.
